# In US11725004B2, “(Cyano-dimethyl-methyl)-isoxazoles and -[1,3,4]thiadiazoles” (Centrexion Therapeutics Corporation, priority 2013, dated 2023):
# Target: human CB1R (Homo sapiens (Human), UniProt P21554)
# Assay: CB1 cAMP (Assay 2): in vitro testing of CB1 potency
# Type: cell-based
# Conditions: CHO cells expressing human CB1R; inhibition of forskolin-stimulated cAMP
# human CB1R, sequence (P21554 whole entry): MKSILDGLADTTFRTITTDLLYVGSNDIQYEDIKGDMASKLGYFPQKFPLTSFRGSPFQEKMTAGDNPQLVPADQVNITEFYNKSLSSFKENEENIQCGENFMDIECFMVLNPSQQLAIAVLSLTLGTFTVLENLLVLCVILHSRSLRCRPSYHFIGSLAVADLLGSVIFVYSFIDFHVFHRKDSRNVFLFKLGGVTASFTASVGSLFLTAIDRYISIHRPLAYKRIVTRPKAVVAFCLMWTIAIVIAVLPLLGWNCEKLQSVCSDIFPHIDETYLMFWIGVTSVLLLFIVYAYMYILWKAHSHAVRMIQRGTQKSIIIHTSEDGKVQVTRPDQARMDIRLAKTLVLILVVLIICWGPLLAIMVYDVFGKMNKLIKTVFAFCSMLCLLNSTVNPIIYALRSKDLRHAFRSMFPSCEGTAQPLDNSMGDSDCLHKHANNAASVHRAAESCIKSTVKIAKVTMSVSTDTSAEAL
row,Compound,IC50
1,"CC(C)(C#N)c1cc(NC(=O)C(C)(C)S(=O)(=O)CC2CCOCC2)on1 [Example 2, N-[3-(Cyano-dimethyl-methyl)-isoxazol-5-yl]-2-methyl-2-(tetrahydro-pyran-4-ylmethanesulfonyl)-propionamide]",> 200 µM
2,COCC(C)(C)c1cc(NC(=O)C(C)(C)N(C)CC2CCOCC2)on1 [Example 46 in WO2010147792],0.923 µM
3,"CN(CC1CCOCC1)C(C)(C)C(=O)Nc1nnc(C(C)(C)C#N)s1 [Example 7, N-[5-(Cyano-dimethyl-methyl)-[1,3,4]thiadiazol-2-yl]-2-methyl-2-[methyl-(tetrahydro-pyran-4-ylmethyl)-amino]-propionamide]",> 200 µM
4,CC(C)(CO)c1cc(NC(=O)C(C)(C)S(=O)(=O)CC2CCOCC2)on1 [Example 1 in WO2010036630],> 50 µM
5,CN(CC1CCOCC1)C(C)(C)C(=O)Nc1cc(C(C)(C)C#N)no1 [Example 4],39.4 µM
6,CC(C)(O)c1cc(NC(=O)C(C)(C)S(=O)(=O)CCCC(F)(F)F)on1 [Example 134 in WO2010036630],26 µM
7,CN(C1CCN(S(C)(=O)=O)CC1)C(C)(C)C(=O)Nc1cc(C(C)(C)CO)no1 [Example 47 in WO2010147792],3.1 µM
8,COCC(C)(C)c1cc(NC(=O)C(C)(C)S(=O)(=O)C2CCOCC2)on1 [Example 38 in WO2010036630],50 µM
9,COCC(C)(C)c1cc(NC(=O)C(C)(C)S(=O)(=O)CC2CCOCC2)on1 [Example 17 in WO2010036630],8.6 µM
10,CN(C1CCN(S(C)(=O)=O)CC1)C(C)(C)C(=O)Nc1cc(C(C)(C)C#N)no1 [Example 5],2.5 µM
11,CC(C)(CO)c1cc(NC(=O)C(C)(C)S(=O)(=O)C2CCOCC2)on1 [Example 2 in WO2010036630],150 µM
12,CC(C)(C#N)c1cc(NC(=O)C(C)(C)S(=O)(=O)C2CCOCC2)on1 [Example 3],> 200 µM
13,CN(CC1CCOCC1)C(C)(C)C(=O)Nc1cc(C(C)(C)CO)no1 [Example 7 in WO2010147792],8.08 µM
14,"CC(C)(C#N)c1cc(NC(=O)C(C)(C)S(=O)(=O)CCCC(F)(F)F)on1 [Example 1, N-[3-(Cyano-dimethyl-methyl)-isoxazol-5-yl]-2-methyl-2-(4,4,4-trifluoro-butane-1-sulfonyl)-propionamide]",104 µM
15,CC(C)(CO)c1cc(NC(=O)C(C)(C)S(=O)(=O)CCCC(F)(F)F)on1 [Example 7 in WO2010036630],28 µM
16,CN(CC1CCOCC1)C(C)(C)C(=O)Nc1nnc(C(C)(C)CO)s1 [Example 30 in WO2010147792],120 µM
17,CN(C1CCN(S(C)(=O)=O)CC1)C(C)(C)C(=O)Nc1nnc(C(C)(C)C#N)s1 [Example 8],69 µM
18,CC(C)(O)c1cc(NC(=O)C(C)(C)S(=O)(=O)C2CCOCC2)on1 [Example 133 WO2010036630],> 200 µM
